As usually defined, the Ki is the equilibrium dissociation constant of an inhibitor or competing ligand from its target.

Structures are written as SMILES.

Type in all cases: biochemical
In one test the target is c-Met (Homo sapiens, UniProt P08581). Kind of test: Ki determination for the inhibition of c-Met, coupled enzyme system. Particulars: 200 μM ATP, 10 μM polyGluTyr, 80 nM c-Met, 30° C. As for the experimental part: Compounds were screened for their ability to inhibit c-Met kinase activity using a standard coupled enzyme system (Fox et al., Protein Sci. 1998, 7, 2249). Reactions were carried out in a solution containing 100 mM HEPES (pH 7.5), 10 mM MgCl2, 25 mM NaCl, 300 μM NADH, 1 mM DTT, and 1.5% DMSO. Final substrate concentrations in the assay were 200 μM ATP (Sigma Chemicals, St Louis, Mo.) and 10 μM polyGluTyr (Sigma Chemical Company, St. Louis). Reactions were carried out at 30° C. and 80 nM c-Met. Final concentrations of the components of the coupled enzyme system were 2.5 mM phosphoenolpyruvate, 300 μM NADH, 30 μg/ml pyruvate kinase and 10 μg/ml lactate dehydrogenase.
An assay stock buffer solution was prepared containing all of the reagents listed above with the exception of ATP and a test compound of the present invention. The assay stock buffer solution (175 μl) was incubated in a 96 well plate with 5 μl of the test compound of the present invention at final concentrations spanning 0.006 μM to 12.5 μM at 30° C. for 10 minutes. Typically, a 12-point titration was conducted by preparing serial dilutions (from 10 mM compound stocks) with DMSO of the test compounds of the present invention in daughter plates. The reaction was initiated by the addition of 20 μl of ATP (final concentration 200 μM). Rates of reaction were obtained using a Molecular Devices Spectramax plate reader (Sunnyvale, Calif.) over 10 minutes at 30° C. The Ki values were determined from the rate data as a function of inhibitor concentration.

The next test addresses SYK (Homo sapiens, UniProt P43405). Put plainly: SYK enzyme assay, coupled enzyme assay. Conditions: 200 μM ATP, 4 μM poly Gly-Tyr peptide, 30° C. As for the experimental part: Compounds were screened for their ability to inhibit SYK using a standard coupled enzyme assay (Fox et al., Protein Sci. 1998, 7, 2249). Reactions were carried out in 100 mM HEPES (pH 7.5), 10 mM MgCl2, 25 mM NaCl, 1 mM DTT and 1.5% DMSO. Final substrate concentrations in the assay were 200 μM ATP (Sigma chemical Co.) and 4 μM poly Gly-Tyr peptide (Sigma Chemical Co.). Assays were carried out at 30° C. and 200 nM SYK. Final concentrations of the components of the coupled enzyme system were 2.5 mM phosphoenolpyruvate, 300 μM NADH, 30 μg/ml pyruvate kinase and 10 μg/ml lactate dehydrogenase.
An assay stock buffer solution was prepared containing all of the reagents listed above, with the exception of SYK, DTT, and the test compound of interest of the present invention. 56 μl of the test reaction was placed in a 96 well plate followed by the addition of 1 μl of 2 mM DMSO stock containing the test compound of the present invnetion (final compound concentration 30 μM). The plate was pre-incubated for ˜10 minutes at 30° C. and the reaction initiated by the addition of 10 μl of enzyme (final concentration 25 nM). Rates of reaction were obtained using a BioRad Ultramark plate reader (Hercules, Calif.) over a 5 minute read time at 30° C., and Ki values for the compounds of the present invention were determined according to standard methods.

Another test deals with GSK-3β, (AA 1-420) (Homo sapiens, UniProt P49841). Put plainly: GSK-3 inhibition assay, coupled enzyme system. Conditions: 20 μM ATP, 300 μM peptide, 20 nM GSK-3b, 30° C.; read-out: Ki values (GSK3). The procedure:
Compounds of the present invention were screened for their ability to inhibit GSK-3β, (AA 1-420) activity using a standard coupled enzyme system (Fox et al., Protein Sci. 1998, 7, 2249). Reactions were carried out in a solution containing 100 mM HEPES (pH 7.5), 10 mM MgCl2, 25 mM NaCl, 300 μM NADH, 1 mM DTT and 1.5% DMSO. Final substrate concentrations in the assay were 20 μM ATP (Sigma Chemicals, St Louis, Mo.) and 300 μM peptide (American Peptide, Sunnyvale, Calif.). Reactions were carried out at 30° C. and 20 nM GSK-3b. Final concentrations of the components of the coupled enzyme system were 2.5 mM phosphoenolpyruvate, 300 μM NADH, 30 μg/ml pyruvate kinase and 10 μg/ml lactate dehydrogenase.
An assay stock buffer solution was prepared containing all of the reagents listed above with the exception of ATP and the test compound of the present invention. The assay stock buffer solution (175 μl) was incubated in a 96 well plate with 5 μl of the test compound of the present invention at final concentrations spanning 0.002 μM to 30 μM at 30° C. for 10 min. Typically, a 12 point titration was conducted by preparing serial dilutions (from 10 mM compound stocks) with DMSO of the test compounds of the present invention in daughter plates. The reaction was initiated by the addition of 20 μl of ATP (final concentration 20 μM). Rates of reaction were obtained using a Molecular Devices Spectramax plate reader (Sunnyvale, Calif.) over 10 min at 30° C. The Ki values were determined from the rate data as a function of inhibitor concentration.

Another test addresses T1, c-KIT (Homo sapiens, UniProt P10721).
T1 construct: 0.02% BSA and 25 nM c-KIT
Put plainly: Inhibition of c-KIT, radiometric filter-binding assay. Conditions: 700 μM ATP, 0.5 mg/mL pE4Y, room temperature. As for the experimental part: Compounds are screened for their ability to inhibit c-KIT activity using a radiometric filter-binding assay. This assay monitors the ^33P incorporation into a substrate poly(Glu, Tyr) 4:1 (pE4Y). Reactions are carried out in a solution containing 100 mM HEPES (pH 7.5), 10 mM MgCl2, 25 mM NaCl, 1 mM DTT, 0.01% BSA and 2.5% DMSO. Final substrate concentrations in the assay were 700 μM ATP and 0.5 mg/mL pE4Y (both from Sigma Chemicals, St Louis, Mo.). The final concentration of compounds is generally between 0.01 and 5 μM. Typically, a 12-point titration is conducted by preparing serial dilutions from 10 mM DMSO stock of test compound. Reactions were carried out at room temperature.
Two assay solutions are prepared. Solution 1 contains 100 mM HEPES (pH 7.5), 10 mM MgCl2, 25 mM NaCl, 1 mg/ml pE4Y and 1.4 mM ATP(containing 0.5 μCi of [γ-^33P]ATP for each reaction). Solution 2 contains 100 mM HEPES (pH 7.5), 10 mM MgCl2, 25 mM NaCl, 2 mM DTT, 0.02% BSA and 25 nM c-KIT. The assay is run on a 96 well plate by mixing 33 μL of Solution1 and 1.65 μL of the test compounds. The reaction is initiated with 33 μL of Solution2. After incubation for 20 minutes at room temperature, the reaction was stopped with 50 μL of 10% TCA containing 0.2 mM of ATP. All of the reaction volume is then transferred to a filter plate and washed with 5% TCA by a Harvester9600 from TOMTEC (Hamden, Conn.). The amount of ^33P incorporation into pE4y is analyzed by a Packard TopCount Microplate Scintillation Counter (Meriden, Conn.). The data is fitted using Prism software to get an IC50 or Ki.

For a further test, the target named is T2, JAK3 (Homo sapiens, UniProt P52333).
T2 sequence (P52333 1-1124): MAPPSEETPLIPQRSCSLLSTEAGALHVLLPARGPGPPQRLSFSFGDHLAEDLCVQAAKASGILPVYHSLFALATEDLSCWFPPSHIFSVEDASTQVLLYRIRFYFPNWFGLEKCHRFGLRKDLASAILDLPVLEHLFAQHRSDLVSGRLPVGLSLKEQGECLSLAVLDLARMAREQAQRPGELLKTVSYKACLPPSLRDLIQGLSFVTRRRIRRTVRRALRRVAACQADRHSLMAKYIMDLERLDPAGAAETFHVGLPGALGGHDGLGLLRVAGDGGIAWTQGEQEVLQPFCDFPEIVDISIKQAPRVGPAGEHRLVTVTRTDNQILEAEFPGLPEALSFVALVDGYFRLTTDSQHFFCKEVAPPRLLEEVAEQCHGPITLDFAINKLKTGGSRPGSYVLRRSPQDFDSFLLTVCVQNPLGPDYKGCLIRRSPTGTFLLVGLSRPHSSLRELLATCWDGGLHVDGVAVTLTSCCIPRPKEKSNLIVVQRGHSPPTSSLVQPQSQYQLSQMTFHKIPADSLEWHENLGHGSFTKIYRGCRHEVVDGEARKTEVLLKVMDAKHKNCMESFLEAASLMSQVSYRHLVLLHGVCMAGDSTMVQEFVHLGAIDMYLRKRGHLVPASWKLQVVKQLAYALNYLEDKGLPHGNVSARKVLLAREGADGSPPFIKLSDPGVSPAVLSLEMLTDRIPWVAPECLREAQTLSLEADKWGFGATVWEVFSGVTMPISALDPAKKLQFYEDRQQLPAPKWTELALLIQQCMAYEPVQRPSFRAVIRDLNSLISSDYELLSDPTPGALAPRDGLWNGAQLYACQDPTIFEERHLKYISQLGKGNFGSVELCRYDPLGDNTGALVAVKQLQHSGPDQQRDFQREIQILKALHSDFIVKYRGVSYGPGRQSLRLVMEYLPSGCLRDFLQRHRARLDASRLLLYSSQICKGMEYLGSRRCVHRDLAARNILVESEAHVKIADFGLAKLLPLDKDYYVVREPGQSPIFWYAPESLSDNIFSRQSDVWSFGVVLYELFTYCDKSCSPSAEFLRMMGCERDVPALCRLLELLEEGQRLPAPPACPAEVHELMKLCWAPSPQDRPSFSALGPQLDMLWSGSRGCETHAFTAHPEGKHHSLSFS
Kind of test: JAK3 inhibition assay (ELISA, Poly (Glu, Ala, Tyr) coated plates). Conditions: 2 mM ATP, 60 minutes at 30° C. As for the experimental part:
Compound inhibition of JAK3 was assayed by the method described by G. R. Brown, et al., Bioorg. Med. Chem. Lett. 2000, vol. 10, pp 575-579 in the following manner. Into Maxisorb plates, previously coated at 4° C. with Poly (Glu, Ala, Tyr) 6:3:1 then washed with phosphate buffered saline 0.05% and Tween (PBST), was added 2 mM ATP, 5 mM MgCl2, and a solution of compound in DMSO. The reaction was started with JAK enzyme and the plates incubated for 60 minutes at 30° C. The plates were then washed with PBST, […] HRP-Conjugated 4G10 antibody was added, and the plate incubated for 90 minutes at 30° C. The plate was again washed with PBST, […] TMB solution is added, and the plates were incubated for another 30 minutes at 30° C. Sulfuric acid ([…] of 1M) was added to stop the reaction and the plate is read at 450 nm to obtain the optical densities for analysis to determine IC50 values.
For orientation: An ELISA detects its analyte on a solid surface through an enzyme-linked reagent.

T1 sequence (P10721 26-976): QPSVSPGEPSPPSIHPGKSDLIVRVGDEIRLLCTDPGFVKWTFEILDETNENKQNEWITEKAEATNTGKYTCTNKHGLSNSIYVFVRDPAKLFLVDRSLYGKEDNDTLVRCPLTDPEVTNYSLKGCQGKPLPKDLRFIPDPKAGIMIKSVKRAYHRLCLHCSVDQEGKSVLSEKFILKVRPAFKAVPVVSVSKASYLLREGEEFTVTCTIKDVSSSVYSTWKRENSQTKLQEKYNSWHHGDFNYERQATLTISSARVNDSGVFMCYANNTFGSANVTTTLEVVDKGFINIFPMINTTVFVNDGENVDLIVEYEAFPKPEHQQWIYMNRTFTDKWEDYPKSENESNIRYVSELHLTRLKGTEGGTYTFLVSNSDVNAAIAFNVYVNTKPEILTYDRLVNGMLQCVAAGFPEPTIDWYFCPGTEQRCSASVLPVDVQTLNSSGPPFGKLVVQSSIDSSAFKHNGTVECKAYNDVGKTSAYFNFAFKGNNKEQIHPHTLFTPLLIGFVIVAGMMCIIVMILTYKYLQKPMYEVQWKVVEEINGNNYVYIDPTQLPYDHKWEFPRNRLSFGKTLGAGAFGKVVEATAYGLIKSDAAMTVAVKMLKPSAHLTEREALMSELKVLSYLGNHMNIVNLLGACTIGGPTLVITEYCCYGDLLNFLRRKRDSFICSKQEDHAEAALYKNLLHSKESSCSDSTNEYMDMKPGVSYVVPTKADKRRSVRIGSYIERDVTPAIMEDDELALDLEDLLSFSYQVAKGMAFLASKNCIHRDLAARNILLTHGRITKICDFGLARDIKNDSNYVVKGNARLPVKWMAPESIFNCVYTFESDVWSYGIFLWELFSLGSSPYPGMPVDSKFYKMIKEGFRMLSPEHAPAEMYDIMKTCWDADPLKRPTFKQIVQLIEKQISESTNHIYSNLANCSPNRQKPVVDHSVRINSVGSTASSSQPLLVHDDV
c-Met, sequence (P08581 25-1390): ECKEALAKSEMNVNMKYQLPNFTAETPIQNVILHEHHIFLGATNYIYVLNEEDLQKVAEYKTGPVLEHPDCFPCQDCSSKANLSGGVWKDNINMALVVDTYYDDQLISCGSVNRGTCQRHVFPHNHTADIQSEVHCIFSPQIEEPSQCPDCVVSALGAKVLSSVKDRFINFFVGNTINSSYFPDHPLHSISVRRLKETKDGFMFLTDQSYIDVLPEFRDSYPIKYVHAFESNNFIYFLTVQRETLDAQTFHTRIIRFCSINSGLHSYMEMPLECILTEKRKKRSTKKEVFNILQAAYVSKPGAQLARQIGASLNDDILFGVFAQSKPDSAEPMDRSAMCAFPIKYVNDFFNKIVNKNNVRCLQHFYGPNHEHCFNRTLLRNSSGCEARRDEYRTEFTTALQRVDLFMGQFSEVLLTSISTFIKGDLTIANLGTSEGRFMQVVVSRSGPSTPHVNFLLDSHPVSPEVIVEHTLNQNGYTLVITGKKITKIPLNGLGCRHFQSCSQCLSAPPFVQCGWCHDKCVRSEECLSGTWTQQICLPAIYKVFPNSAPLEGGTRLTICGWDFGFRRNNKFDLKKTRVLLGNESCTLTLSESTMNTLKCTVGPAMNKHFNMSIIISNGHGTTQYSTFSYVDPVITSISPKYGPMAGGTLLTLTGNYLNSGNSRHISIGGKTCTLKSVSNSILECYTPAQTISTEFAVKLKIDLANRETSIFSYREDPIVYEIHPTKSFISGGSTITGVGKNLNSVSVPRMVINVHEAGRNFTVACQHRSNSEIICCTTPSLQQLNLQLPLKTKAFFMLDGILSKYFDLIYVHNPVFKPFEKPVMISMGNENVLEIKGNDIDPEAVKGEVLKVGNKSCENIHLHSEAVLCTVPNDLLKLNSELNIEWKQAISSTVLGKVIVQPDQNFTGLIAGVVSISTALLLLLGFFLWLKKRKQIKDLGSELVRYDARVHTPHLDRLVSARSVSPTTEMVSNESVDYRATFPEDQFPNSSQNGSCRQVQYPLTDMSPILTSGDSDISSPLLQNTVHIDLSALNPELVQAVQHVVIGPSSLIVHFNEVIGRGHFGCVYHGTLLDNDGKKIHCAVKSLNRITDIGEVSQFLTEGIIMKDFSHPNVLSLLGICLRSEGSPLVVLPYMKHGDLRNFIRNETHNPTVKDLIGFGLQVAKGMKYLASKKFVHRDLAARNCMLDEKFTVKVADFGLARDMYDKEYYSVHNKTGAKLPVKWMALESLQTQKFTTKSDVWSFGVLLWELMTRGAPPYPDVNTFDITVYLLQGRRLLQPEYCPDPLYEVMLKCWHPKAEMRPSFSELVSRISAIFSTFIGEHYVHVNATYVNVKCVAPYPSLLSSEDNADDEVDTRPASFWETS
GSK-3β, (AA 1-420), sequence (P49841 whole entry, the tested form may be a part): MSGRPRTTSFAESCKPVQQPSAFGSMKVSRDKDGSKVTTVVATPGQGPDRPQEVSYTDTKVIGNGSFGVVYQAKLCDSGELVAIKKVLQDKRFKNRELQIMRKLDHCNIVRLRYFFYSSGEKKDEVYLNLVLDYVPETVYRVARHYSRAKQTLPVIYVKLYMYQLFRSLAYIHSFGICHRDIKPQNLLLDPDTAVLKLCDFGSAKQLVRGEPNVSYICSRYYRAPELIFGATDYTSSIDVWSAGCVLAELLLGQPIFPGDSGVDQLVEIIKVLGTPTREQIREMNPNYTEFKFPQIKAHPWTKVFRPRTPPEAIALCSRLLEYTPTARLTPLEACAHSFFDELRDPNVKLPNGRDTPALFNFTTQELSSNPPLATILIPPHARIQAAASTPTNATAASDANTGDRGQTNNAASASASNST

As to `Fc1cccc(-c2cnoc2-c2c[nH]c3ccccc23)c1F` [Compound 29, 3-[4-(2,3-Difluoro-phenyl)-isoxazol-5-yl]-1H-indole], the Ki on c-Met is 1000 to 12500 nM; on SYK, 1000 to 12500 nM; on GSK-3β, (AA 1-420) it was 1000 to 12500 nM.
As for `Fc1cccc(-n2cnnc2-c2c[nH]c3ncc(-c4ccc(NCC5CCCO5)nc4)cc23)c1F` (stereo not drawn) [Compound 124, (5-{3-[4-(2,3-Difluoro-phenyl)-4H-[1,2,4]triazol-3-yl]-1H-pyrrolo[2,3-b]pyridin-5-yl}-pyridin-2-yl)-(tetrahydro-furan-2-ylmethyl)-amine], the values for the Ki at c-Met, on c-KIT and at JAK3 were less than 200 nM, 200 to 1000 nM and 200 to 1000 nM, respectively.
With `CN1CCN(c2ccc(-c3cnc4[nH]cc(-c5nncn5-c5cccc(F)c5F)c4c3)cc2N)CC1` [Compound 129, 5-{3-[4-(2,3-Difluoro-phenyl)-4H-[1,2,4]triazol-3-yl]-1H-pyrrolo[2,3-b]pyridin-5-yl}-2-(4-methyl-piperazin-1-yl)-phenylamine], the Ki on c-Met is less than 200 nM; at c-KIT it was less than 200 nM; at JAK3, 200 to 1000 nM.
Take `CN(C)c1ccc(-c2cnc3[nH]cc(-c4nncn4-c4cccc(F)c4F)c3c2)cc1N` [Compound 130, 4-{3-[4-(2,3-Difluoro-phenyl)-4H-[1,2,4]triazol-3-yl]-1H-pyrrolo[2,3-b]pyridin-5-yl}-N^1,N^1-dimethyl-benzene-1,2-diamine]: the Ki was less than 200 nM at c-Met, less than 200 nM at c-KIT and 200 to 1000 nM at JAK3.
With `CN(C)c1ccc(-c2cnc3[nH]cc(-c4nncn4-c4cccc(F)c4F)c3c2)cc1[N+](=O)[O-]` [Compound 131, (4-{3-[4-(2,3-Difluoro-phenyl)-4H-[1,2,4]triazol-3-yl]-1H-pyrrolo[2,3-b]pyridin-5-yl}-2-nitro-phenyl)-dimethyl-amine], the Ki on c-Met is less than 200 nM; on c-KIT, less than 200 nM; at JAK3, 1000 to 12500 nM.

Values taken from patent US7446199B2, “Compositions useful as inhibitors of protein kinases” (Vertex Pharmaceuticals Incorporated, priority 2003, dated 2008).
